Literature values as cited in patent US11377636B2, “Endogenous retrovirus transcription as a marker for primate naive pluripotent stem cells” (Max-Delbrück-Centrum für Molekulare Medizin in der …, priority 2014, dated 2022).

Legend:
[1] = test system: HeLa cells
[2] = target: GSK3β (Homo sapiens, UniProt P49841)
[3] = target: Src kinase (Homo sapiens, UniProt P12931)
[4] = target: KDR (Homo sapiens, UniProt P35968)
[5] = target: PKCα (Homo sapiens, UniProt P17252)
[6] = target: PKCβ (Homo sapiens, UniProt P05771)
[7] = target: T1, PKCζ (Homo sapiens, UniProt Q05513)
T1 sequence (Q05513 1-592): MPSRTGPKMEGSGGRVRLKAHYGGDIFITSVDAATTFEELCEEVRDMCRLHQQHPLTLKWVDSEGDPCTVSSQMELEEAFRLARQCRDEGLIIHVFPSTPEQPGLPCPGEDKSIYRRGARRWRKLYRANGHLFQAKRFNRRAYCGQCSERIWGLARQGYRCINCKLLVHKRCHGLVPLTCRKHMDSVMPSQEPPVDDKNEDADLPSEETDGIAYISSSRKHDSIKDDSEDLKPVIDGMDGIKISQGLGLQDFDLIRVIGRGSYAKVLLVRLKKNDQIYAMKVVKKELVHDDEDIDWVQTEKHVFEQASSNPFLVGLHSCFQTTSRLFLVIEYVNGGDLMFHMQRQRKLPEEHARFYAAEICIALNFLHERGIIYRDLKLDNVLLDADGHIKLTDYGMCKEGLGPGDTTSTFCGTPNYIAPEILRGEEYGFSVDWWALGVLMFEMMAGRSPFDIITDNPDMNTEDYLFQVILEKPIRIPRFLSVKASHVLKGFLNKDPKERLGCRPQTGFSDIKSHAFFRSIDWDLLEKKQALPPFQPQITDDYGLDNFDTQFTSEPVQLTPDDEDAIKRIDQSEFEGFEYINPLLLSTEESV

[8] = target: PKCδ (Homo sapiens, UniProt Q05655)
[9] = target: T2, PKCμ (Homo sapiens, UniProt Q15139); conditions: does not effectively inhibit PKCμ
T2 sequence (Q15139 1-912): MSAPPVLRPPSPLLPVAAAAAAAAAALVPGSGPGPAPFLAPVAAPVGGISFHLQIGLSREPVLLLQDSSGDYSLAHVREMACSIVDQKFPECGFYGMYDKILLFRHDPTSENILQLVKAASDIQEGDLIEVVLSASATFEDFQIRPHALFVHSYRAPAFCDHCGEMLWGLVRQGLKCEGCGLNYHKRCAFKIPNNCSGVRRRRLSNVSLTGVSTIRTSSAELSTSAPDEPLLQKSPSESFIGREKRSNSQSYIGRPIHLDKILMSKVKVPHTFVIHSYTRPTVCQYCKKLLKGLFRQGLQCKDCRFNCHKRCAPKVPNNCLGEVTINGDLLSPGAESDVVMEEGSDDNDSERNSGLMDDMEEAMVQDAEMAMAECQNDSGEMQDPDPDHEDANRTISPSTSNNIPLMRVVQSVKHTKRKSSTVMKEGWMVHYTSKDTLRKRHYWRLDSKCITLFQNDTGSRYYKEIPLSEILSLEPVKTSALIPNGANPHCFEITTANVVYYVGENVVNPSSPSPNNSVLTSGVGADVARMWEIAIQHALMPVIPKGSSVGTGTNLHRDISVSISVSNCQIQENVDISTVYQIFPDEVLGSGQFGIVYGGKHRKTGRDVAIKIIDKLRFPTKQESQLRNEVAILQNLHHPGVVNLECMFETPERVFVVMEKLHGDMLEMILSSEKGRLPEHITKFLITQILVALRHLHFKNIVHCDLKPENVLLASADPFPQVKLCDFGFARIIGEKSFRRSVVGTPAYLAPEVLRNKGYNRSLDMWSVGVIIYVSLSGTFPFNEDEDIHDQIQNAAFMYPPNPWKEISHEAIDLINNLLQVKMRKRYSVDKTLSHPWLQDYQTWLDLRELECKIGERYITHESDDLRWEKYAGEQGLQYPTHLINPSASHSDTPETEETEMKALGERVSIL

[10] = target: PKCγ (Homo sapiens, UniProt P05129)

Sequence of PKCδ (Q05655 whole entry): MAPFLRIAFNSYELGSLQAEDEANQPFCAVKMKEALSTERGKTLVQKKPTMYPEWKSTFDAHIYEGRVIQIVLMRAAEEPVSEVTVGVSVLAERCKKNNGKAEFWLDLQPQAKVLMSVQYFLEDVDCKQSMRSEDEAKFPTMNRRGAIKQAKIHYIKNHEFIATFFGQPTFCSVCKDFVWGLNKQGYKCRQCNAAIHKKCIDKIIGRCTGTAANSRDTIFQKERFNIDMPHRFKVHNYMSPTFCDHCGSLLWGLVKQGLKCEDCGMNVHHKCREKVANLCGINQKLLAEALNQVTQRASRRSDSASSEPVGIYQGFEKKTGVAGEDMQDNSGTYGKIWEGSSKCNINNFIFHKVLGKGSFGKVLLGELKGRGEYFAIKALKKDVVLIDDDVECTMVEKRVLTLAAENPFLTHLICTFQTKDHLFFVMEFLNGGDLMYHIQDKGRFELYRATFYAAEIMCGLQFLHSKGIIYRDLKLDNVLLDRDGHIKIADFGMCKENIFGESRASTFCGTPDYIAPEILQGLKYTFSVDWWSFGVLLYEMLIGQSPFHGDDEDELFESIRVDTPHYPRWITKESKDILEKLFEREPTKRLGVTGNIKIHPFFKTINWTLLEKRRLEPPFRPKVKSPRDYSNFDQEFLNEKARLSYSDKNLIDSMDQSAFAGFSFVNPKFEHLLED
Sequence of GSK3β (P49841 whole entry, species assumed): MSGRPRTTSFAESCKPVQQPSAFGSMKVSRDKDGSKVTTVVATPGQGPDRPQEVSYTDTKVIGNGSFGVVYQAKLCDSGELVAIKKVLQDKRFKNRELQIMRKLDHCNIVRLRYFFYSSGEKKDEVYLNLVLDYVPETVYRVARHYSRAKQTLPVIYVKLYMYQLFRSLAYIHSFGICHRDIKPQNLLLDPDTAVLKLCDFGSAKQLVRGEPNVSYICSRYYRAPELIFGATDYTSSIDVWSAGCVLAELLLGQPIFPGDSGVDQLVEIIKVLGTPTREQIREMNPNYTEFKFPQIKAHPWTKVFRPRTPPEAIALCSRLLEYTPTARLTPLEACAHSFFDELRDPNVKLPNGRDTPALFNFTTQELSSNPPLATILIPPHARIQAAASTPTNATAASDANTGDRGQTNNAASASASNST
Sequence of KDR (P35968 20-1356, species assumed): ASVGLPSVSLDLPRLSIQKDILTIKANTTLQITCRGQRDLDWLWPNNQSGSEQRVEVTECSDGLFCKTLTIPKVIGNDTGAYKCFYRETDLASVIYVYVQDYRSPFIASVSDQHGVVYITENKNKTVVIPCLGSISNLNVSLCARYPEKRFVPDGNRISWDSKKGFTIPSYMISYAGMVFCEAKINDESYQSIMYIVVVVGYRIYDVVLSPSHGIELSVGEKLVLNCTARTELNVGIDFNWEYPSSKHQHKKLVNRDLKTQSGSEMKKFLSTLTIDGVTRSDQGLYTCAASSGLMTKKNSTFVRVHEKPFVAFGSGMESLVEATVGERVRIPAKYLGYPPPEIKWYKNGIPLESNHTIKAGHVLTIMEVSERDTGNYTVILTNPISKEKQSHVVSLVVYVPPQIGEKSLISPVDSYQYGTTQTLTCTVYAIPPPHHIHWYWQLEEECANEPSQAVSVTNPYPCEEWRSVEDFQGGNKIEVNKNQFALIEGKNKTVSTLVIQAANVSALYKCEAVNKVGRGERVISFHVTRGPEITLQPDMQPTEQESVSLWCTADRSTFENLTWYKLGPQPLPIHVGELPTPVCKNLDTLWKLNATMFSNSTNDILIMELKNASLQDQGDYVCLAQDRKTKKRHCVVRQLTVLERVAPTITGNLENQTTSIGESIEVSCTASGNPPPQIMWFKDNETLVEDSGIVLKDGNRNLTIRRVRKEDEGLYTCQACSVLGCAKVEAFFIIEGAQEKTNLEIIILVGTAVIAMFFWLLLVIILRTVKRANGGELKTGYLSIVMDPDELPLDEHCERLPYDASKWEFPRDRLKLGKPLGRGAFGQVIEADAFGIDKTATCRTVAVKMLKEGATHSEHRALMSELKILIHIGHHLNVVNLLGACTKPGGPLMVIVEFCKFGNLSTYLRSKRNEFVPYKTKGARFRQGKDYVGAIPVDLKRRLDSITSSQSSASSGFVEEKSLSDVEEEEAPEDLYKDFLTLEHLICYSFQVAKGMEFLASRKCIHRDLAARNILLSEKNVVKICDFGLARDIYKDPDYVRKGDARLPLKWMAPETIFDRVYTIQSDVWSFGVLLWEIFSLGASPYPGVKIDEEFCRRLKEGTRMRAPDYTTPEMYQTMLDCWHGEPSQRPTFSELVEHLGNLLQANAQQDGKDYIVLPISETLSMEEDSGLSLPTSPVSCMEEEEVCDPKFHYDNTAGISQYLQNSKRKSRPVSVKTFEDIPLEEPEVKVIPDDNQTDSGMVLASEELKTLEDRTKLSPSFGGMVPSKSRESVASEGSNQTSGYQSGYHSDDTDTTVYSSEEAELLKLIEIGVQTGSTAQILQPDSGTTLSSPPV
Sequence of PKCβ (P05771 whole entry, species assumed): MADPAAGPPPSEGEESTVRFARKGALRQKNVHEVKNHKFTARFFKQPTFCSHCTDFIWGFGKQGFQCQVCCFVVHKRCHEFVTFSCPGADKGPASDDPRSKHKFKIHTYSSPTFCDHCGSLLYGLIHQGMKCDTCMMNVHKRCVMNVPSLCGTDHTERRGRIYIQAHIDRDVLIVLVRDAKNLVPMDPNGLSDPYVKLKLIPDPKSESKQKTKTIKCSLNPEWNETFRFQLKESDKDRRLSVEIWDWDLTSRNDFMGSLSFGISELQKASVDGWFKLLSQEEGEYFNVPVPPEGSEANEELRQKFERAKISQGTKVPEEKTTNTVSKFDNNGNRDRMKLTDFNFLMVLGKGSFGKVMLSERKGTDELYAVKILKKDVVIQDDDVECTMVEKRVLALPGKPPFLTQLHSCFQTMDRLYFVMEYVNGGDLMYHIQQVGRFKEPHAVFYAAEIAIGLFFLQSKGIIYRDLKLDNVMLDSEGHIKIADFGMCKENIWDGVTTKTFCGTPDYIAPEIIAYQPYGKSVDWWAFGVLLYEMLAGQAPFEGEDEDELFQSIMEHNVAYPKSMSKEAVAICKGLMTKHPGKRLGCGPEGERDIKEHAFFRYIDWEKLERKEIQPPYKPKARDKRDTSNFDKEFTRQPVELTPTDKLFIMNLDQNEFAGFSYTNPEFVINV

## CN1C(=O)[C@@]23C[C@]4([C@]56C[C@@]78SS[C@@](CO)(C(=O)N7[C@H]5Nc5ccccc56)N(C)C8=O)c5ccccc5N[C@@H]4N2C(=O)[C@]1(CO)SS3 [Chaetocin]
[1]
  cytotoxicity against HeLa cells IC50: 0.05 µg/mL

## Cc1[nH]c2ccccc2c1C1=C(NCCc2ccc(F)cc2)C(=O)N(C)C1=O [IM-12]
[2]
  IC50: 53 nM

## WH-4-023
[3]
  IC50: 6 nM
[4]
  inhibition on KDR: little inhibition

## COc1ccc2c(c1)c(C1=C(c3c[nH]c4ccccc34)C(=O)NC1=O)cn2CCCN(C)C [Go6983]
[5]
  IC50: 7 nM
[6]
  IC50: 7 nM
[7]
  IC50: 60 nM
[8]
  IC50: 10 nM
[9]
  IC50: 20000 nM
[10]
  IC50: 6 nM
